Experimental findings from PubChem BioAssay (NCI) are described below.

Among the test systems are SF-295 CNS; BT-549 breast; SN12C renal; MALME-3M melanoma; HCT-15 colon; MDA-MB-435; A498 renal; SR leukemia; SW-620 colon; UACC-257 melanoma.
What all share (assay): DTP human tumour cell line panel, 48 h

Where “and” joins values, the source holds several entries; their conditions need not be identical. Equal values may be shown once.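 Assay format: 96-well plates, 48-hour exposure. GI50 marks 50% less growth. Definition used: TGI = concentration required for complete inhibition of growth.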

Consider `Oc1ccc(NCc2nc3ccccc3[nH]2)cc1`, for which the GI50 in the test on SF-295 CNS was 24.4 µM; in the test on BT-549 breast it was 50.1 µM; with SN12C renal, 61.4 µM; with MALME-3M melanoma, 76.3 µM; in the test with HCT-15 colon, above 100 µM; with MDA-MB-435, above 100 µM. Also, the GI50 in the test on A498 renal was 14.7 µM; in the test on SR leukemia, 53.8 µM; in the test with SW-620 colon, above 100 µM; in the test on UACC-257 melanoma, 88 µM. For the same molecule, the TGI with SF-295 CNS was 97.2 µM; in the test with BT-549 breast, above 100 µM; with SN12C renal, above 100 µM; in the test on MALME-3M melanoma, above 100 µM; in the test with HCT-15 colon, above 100 µM; in the test with MDA-MB-435, above 100 µM. Further, the TGI with A498 renal, with SR leukemia, in the test on SW-620 colon and in the test with UACC-257 melanoma was above 100 µM in each case.
Consider `CCOc1cc2c(Cl)ncnc2c(OCC)c1OCC`, for which the GI50 in the test on SF-295 CNS was 9.25 µM; in the test on BT-549 breast, 4.82 µM; with SN12C renal it was 12 µM; with MALME-3M melanoma it was 9.5 µM; in the test with HCT-15 colon it was 2.56 µM; in the test on MDA-MB-435, 6.06 µM. Also, the GI50 with A498 renal was 6.48 µM; in the test with SR leukemia it was 1.18 µM; in the test with SW-620 colon, 2.88 µM; in the test with UACC-257 melanoma, 6.95 µM. Besides, the concentration for total growth inhibition (TGI) with SF-295 CNS turned out to be 29.2 µM; with BT-549 breast it was 14.5 µM; with SN12C renal it was 26.2 µM; with MALME-3M melanoma it was 27.5 µM; in the test on HCT-15 colon, 9.07 µM; in the test on MDA-MB-435 it was 21.2 µM. Moreover, the TGI in the test with A498 renal is 19.1 µM; with SR leukemia, 4.31 µM; in the test on SW-620 colon it was 9.24 µM; in the test with UACC-257 melanoma, 22 µM.
Consider `CS(=O)(=O)c1ccc([C@H]2O[C@@H](CO)C[C@]2(O)c2ccc(S(C)(=O)=O)cc2)cc1`, for which the GI50 in the test on SF-295 CNS, with BT-549 breast, in the test with SN12C renal, in the test with MALME-3M melanoma, in the test on HCT-15 colon and in the test with MDA-MB-435 was above 100 µM throughout. Moreover, the GI50 with A498 renal, in the test with SR leukemia, in the test on SW-620 colon and in the test with UACC-257 melanoma was above 100 µM in each case. Moreover, the total growth inhibition concentration (TGI) with SF-295 CNS, in the test with BT-549 breast, with SN12C renal, in the test on MALME-3M melanoma, in the test on HCT-15 colon and in the test on MDA-MB-435 was above 100 µM throughout. Moreover, the TGI in the test with A498 renal, in the test on SR leukemia, with SW-620 colon and in the test with UACC-257 melanoma was above 100 µM each time.
Turning to `C=C1C(=O)O[C@H]2[C@H]1CC/C(COC(=O)c1ccc3ccccc3c1)=C\CC[C@@]1(C)O[C@@H]21`, the GI50 in the test on SF-295 CNS is 1.54 µM; in the test on BT-549 breast, 0.57 µM; in the test with SN12C renal it was 1.16 µM; in the test with MALME-3M melanoma it was 1.74 µM; in the test with HCT-15 colon, 0.394 µM; with MDA-MB-435, 1.1 µM. Further, the GI50 with A498 renal was 1.88 µM; with SR leukemia, 0.336 µM; in the test on SW-620 colon it was 0.356 µM; in the test with UACC-257 melanoma it was 1.39 µM. Moreover, the TGI was 3.06 µM in the test with SF-295 CNS; 2.03 µM with BT-549 breast; 2.87 µM with SN12C renal; 3.47 µM in the test with MALME-3M melanoma; 1.66 µM in the test with HCT-15 colon; 2.45 µM in the test with MDA-MB-435. Besides, the TGI in the test on A498 renal is 4.5 µM; in the test with SR leukemia it was above 26.8 µM; in the test on SW-620 colon, 1.39 µM; with UACC-257 melanoma it was 2.78 µM.
Take `Cn1c(=O)c2[nH]c(SCc3ccccn3)nc2n(C)c1=S`: the TGI in the test on SF-295 CNS, in the test on BT-549 breast, in the test with SN12C renal, with MALME-3M melanoma, in the test with HCT-15 colon and in the test on MDA-MB-435 was above 100 µM in each case. The TGI in the test on A498 renal is 55.2 µM; in the test with SR leukemia, above 100 µM; in the test on SW-620 colon it was above 100 µM; in the test on UACC-257 melanoma it was above 100 µM.
As for `COc1ccc(-c2cc(=O)c3ccc(O)cc3o2)cc1OC`, the concentration for total growth inhibition (TGI) in the test with SF-295 CNS, in the test with BT-549 breast, in the test with SN12C renal, in the test with MALME-3M melanoma, in the test on HCT-15 colon and with MDA-MB-435 was above 100 µM in each case. For the same molecule, the TGI in the test with A498 renal, in the test with SR leukemia, in the test on SW-620 colon and in the test on UACC-257 melanoma was above 100 µM throughout.
Take `COc1cc2c(c(O)c1Br)C(=O)c1c(O)cc(C[C@H](C)O)cc1[C@H]2[C@H]1c2cc(C[C@H](C)O)cc(O)c2C(=O)c2c1cc(OC)c(Br)c2O`: the GI50 was 8 µM and 10.2 µM in the test with SF-295 CNS; 10.9 µM and 7.55 µM in the test with BT-549 breast; 2.25 µM and 3.64 µM in the test on SN12C renal; 6.65 µM and 12.8 µM in the test with MALME-3M melanoma; 10.4 µM and 17.4 µM with HCT-15 colon; 5.76 µM and 13.4 µM with MDA-MB-435. The GI50 in the test on A498 renal is 4.35 µM and 22.5 µM; in the test on SR leukemia, 3.04 µM and 3.98 µM; with SW-620 colon it was 5.36 µM and 19.9 µM; with UACC-257 melanoma, 11.2 µM and 19.1 µM. The total growth inhibition concentration (TGI) is 21.5 µM and 22.4 µM in the test on SF-295 CNS; 63.5 µM and 45.2 µM in the test on BT-549 breast; 67.5 µM and > 100 µM in the test with SN12C renal; 17 µM and 26.1 µM with MALME-3M melanoma; 67.5 µM and > 100 µM in the test with HCT-15 colon; 36.1 µM and 37.6 µM in the test on MDA-MB-435. Also, the TGI with A498 renal was 35.1 µM and 58.5 µM; with SR leukemia, 67.5 µM and > 100 µM; with SW-620 colon, 67.5 µM and > 100 µM; with UACC-257 melanoma, 39.8 µM and 67.7 µM.
On to `CC(=O)OC[C@]1(C)C=C2C(=O)[C@](C)(O)C3(CC3)C(C)=C2[C@H]1O`, for which the GI50 in the test with SF-295 CNS was 0.131 µM; in the test on BT-549 breast it was 0.148 µM; with SN12C renal, 0.251 µM; with MALME-3M melanoma it was 0.124 µM; with HCT-15 colon it was 0.0306 µM; in the test on MDA-MB-435, 0.136 µM. The GI50 was 0.148 µM in the test on A498 renal, 0.0667 µM with SR leukemia, 0.044 µM in the test with SW-620 colon and 0.28 µM in the test on UACC-257 melanoma. The TGI in the test with SF-295 CNS came out at 1.56 µM; in the test with BT-549 breast it was 0.556 µM; with SN12C renal, 6.21 µM; with MALME-3M melanoma it was 0.302 µM; in the test with HCT-15 colon, 31.8 µM; in the test with MDA-MB-435, 0.587 µM. Moreover, the TGI is 0.366 µM in the test on A498 renal, above 100 µM with SR leukemia, above 50 µM in the test on SW-620 colon and 1.12 µM with UACC-257 melanoma.
